pIC50: −log10 of the molar value.
biological target: T1, recombinant N-terminal MLH1 (residues 15-340) (Homo sapiens, UniProt P40692); test: Fluorescence Polarisation Assay for MLH1; format: binding; conditions: 100 nM N-terminal MLH1, 5 nM probe compound
T1 construct: recombinant N-terminal MLH1 (residues 15-340)
T1 sequence (P40692 15-340): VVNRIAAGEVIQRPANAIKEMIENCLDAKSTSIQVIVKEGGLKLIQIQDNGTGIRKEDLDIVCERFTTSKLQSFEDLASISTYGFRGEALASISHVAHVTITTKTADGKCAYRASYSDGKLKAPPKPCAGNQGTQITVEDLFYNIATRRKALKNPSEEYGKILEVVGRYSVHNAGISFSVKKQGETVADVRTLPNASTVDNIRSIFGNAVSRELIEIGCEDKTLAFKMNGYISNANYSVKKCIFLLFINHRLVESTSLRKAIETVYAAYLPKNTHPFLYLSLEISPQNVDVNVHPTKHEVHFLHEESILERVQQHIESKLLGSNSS
In short: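 Fluorescence polarisation displacement: 100 nM MLH1 (15-340) preincubated 30 min at room temperature with compound, then 5 nM rhodamine-labelled probe added and read immediately. Buffer 25 mM HEPES pH 7.5, 250 mM NaCl, 10 mM MgCl2, 0.01% Triton X-100, 5 mM DTT; normalised to no-inhibitor and no-enzyme controls.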

pIC50	SMILES
> 7.00	CC(=O)N1CCC(Oc2ccc3c(c2)CN(C(=O)c2c(O)cc(C(F)F)cc2OCc2ccccc2)C3)CC1 [Example 29, 1-(4-((2-(2-(Benzyloxy)-4-(difluoromethyl)-6-hydroxybenzoyl)isoindolin-5-yl)oxy)piperidin-1-yl) ethan-1-one]
> 7.00	O=C(c1c(O)cc(C(F)F)cc1OCc1ccc2cnccc2c1)N1CCc2cccc(N[C@H]3CCOC3)c2C1 [Example 28.2, (S)-(4-(Difluoromethyl)-2-hydroxy-6-(isoquinolin-6-ylmethoxy)phenyl)(8-((tetrahydrofuran-3-yl)amino)-3,4-dihydroisoquinolin-2(1H)-yl)methanone]
6.00 to 7.00	O=C(c1c(O)cc(C(F)F)cc1OCc1ccccc1)N1Cc2cnc(N3CCOCC3)cc2C1 [Example 27.9, (2-(Benzyloxy)-4-(difluoromethyl)-6-hydroxyphenyl)(6-morpholino-1,3-dihydro-2H-pyrrolo[3,4-c]pyridin-2-yl)methanone]
> 7.00	CN1CC[C@@H](Oc2ccc3c(c2)CN(C(=O)c2c(O)cc(C(F)F)cc2OCc2ccccc2)C3)C1 [Example 4.55, (R)-(2-(Benzyloxy)-4-(difluoromethyl)-6-hydroxyphenyl)(5-((1-methylpyrrolidin-3-yl)oxy)isoindolin-2-yl)methanone]
6.00 to 7.00	CN1CC(Nc2cccc3c2CN(C(=O)c2c(O)cc(C#N)cc2OCc2ccccc2)C3)CC1=O (centres unmarked) [Example 10.3, 3-(Benzyloxy)-5-hydroxy-4-(4-((1-methyl-5-oxopyrrolidin-3-yl)amino)isoindoline-2-carbonyl)benzonitrile]
6.00 to 7.00	COc1cccc(COc2cc(C(F)F)cc(O)c2C(=O)N2Cc3cccc(N[C@H]4CCOC4)c3C2)c1 [Example 4.1, (S)-(4-(Difluoromethyl)-2-hydroxy-6-((3-methoxybenzyl)oxy)phenyl)(4-((tetrahydrofuran-3-yl)amino)isoindolin-2-yl)methanone]
6.00 to 7.00	O=C(c1c(O)cc(C(F)F)cc1OCc1ccccc1)N1CCc2cccc(N[C@H]3CCOC3)c2C1 [Example 4.6, (S)-(2-(Benzyloxy)-4-(difluoromethyl)-6-hydroxyphenyl)(8-((tetrahydrofuran-3-yl)amino)-3,4-dihydroisoquinolin-2(1H)-yl)methanone]
5.00 to 6.00	N#Cc1cc(O)c(C(=O)N2CCc3cc(NC4CCOC4)ccc32)c(OCc2ccccc2)c1 (centres unmarked) [Example 27.4, 3-(Benzyloxy)-5-hydroxy-4-(5-((tetrahydrofuran-3-yl)amino)indoline-1-carbonyl)benzonitrile]
5.00 to 6.00	O=C(c1c(O)cc(C(F)F)cc1OCc1ccccc1)N1CCc2cc(NC3CCOC3)ccc21 (centres unmarked) [Example 27.5, (2-(Benzyloxy)-4-(difluoromethyl)-6-hydroxyphenyl)(5-((tetrahydrofuran-3-yl)amino)indolin-1-yl)methanone]
5.00 to 6.00	O=C(c1c(O)cc(C(F)F)cc1OCC12CC(CO1)C2)N1CCc2cccc(N[C@H]3CCOC3)c2C1 [Example 28.1, (S)-(2-((2-Oxabicyclo[2.1.1]hexan-1-yl)methoxy)-4-(difluoromethyl)-6-hydroxyphenyl)(8-((tetrahydrofuran-3-yl)amino)-3,4-dihydroisoquinolin-2(1H)-yl)methanone]
5.00 to 6.00	CNc1cccc2c1CN(C(=O)c1c(O)cc(C(F)F)cc1OCc1ccccc1)CC2 [Example 4.36, (2-(Benzyloxy)-4-(difluoromethyl)-6-hydroxyphenyl)(8-(methylamino)-3,4-dihydroisoquinolin-2(1H)-yl)methanone]
6.00 to 7.00	CN(C)Cc1ccc2c(c1)CN(C(=O)c1c(O)cc(C(F)F)cc1OCc1ccccc1)CC2 [Example 4.42, (2-(Benzyloxy)-4-(difluoromethyl)-6-hydroxyphenyl)(7-((dimethylamino)methyl)-3,4-dihydroisoquinolin-2(1H)-yl)methanone]
5.00 to 6.00	O=C(c1c(O)cc(C(F)F)cc1OCc1ccccc1)N1CCc2ccncc21 [Example 27.23, (2-(Benzyloxy)-4-(difluoromethyl)-6-hydroxyphenyl)(2,3-dihydro-1H-pyrrolo[2,3-c]pyridin-1-yl)methanone]
6.00 to 7.00	CN1CCC(Oc2ccc3c(c2)CN(C(=O)c2c(O)cc(C(F)F)cc2OCc2ccccn2)C3)CC1 [Example 4.58, (4-(Difluoromethyl)-2-hydroxy-6-(pyridin-2-ylmethoxy)phenyl)(5-((1-methylpiperidin-4-yl)oxy)isoindolin-2-yl)methanone]
6.00 to 7.00	O=C(c1c(O)cc(C(F)F)cc1OCc1ccccn1)N1CCc2cccc(N[C@H]3CCOC3)c2C1 [Example 4.10, (S)-(4-(Difluoromethyl)-2-hydroxy-6-(pyridin-2-ylmethoxy)phenyl)(8-((tetrahydrofuran-3-yl)amino)-3,4-dihydroisoquinolin-2(1H)-yl)methanone]
6.00 to 7.00	Cn1cnc(-c2cc3c(c(N[C@H]4CCOC4)c2)CN(C(=O)c2c(O)cc(C(F)F)cc2OCc2ccccc2)C3)c1 [Example 4.25, (S)-(2-(Benzyloxy)-4-(difluoromethyl)-6-hydroxyphenyl)(6-(1-methyl-1H-imidazol-4-yl)-4-((tetrahydrofuran-3-yl)amino)isoindolin-2-yl)methanone]
5.00 to 6.00	N#Cc1cc(O)c(C(=O)N2CCc3cccnc32)c(OCc2ccccc2)c1 [Example 27.14, 3-(Benzyloxy)-4-(2,3-dihydro-1H-pyrrolo[2,3-b]pyridine-1-carbonyl)-5-hydroxybenzonitrile]
6.00 to 7.00	CN1CC[C@H](Oc2ccc3c(c2)CN(C(=O)c2c(O)cc(C(F)F)cc2OCc2ccccc2)CC3)C1 [Example 4.68, (S)-(2-(Benzyloxy)-4-(difluoromethyl)-6-hydroxyphenyl)(7-((1-methylpyrrolidin-3-yl)oxy)-3,4-dihydroisoquinolin-2(1H)-yl)methanone]
5.00 to 6.00	COc1ccc2c(c1)CCN(C(=O)c1c(O)cc(C(F)F)cc1OCc1ccccc1)C2 [Example 4.39, (2-(Benzyloxy)-4-(difluoromethyl)-6-hydroxyphenyl)(6-methoxy-3,4-dihydroisoquinolin-2(1H)-yl)methanone]
5.00 to 6.00	CN1CCC(Oc2ccc3c(c2)CCN(C(=O)c2c(O)cc(C#N)cc2OCc2ccccc2)CC3)CC1 [Example 27.6, 3-(Benzyloxy)-5-hydroxy-4-(7-((1-methylpiperidin-4-yl)oxy)-2,3,4,5-tetrahydro-1H-benzo[d]azepine-3-carbonyl)benzonitrile hydroformate]
5.00 to 6.00	CN1CCN(c2cc3c(cn2)CN(C(=O)c2c(O)cc(C#N)cc2OCc2ccccc2)C3)CC1 [Example 27.1, 3-(Benzyloxy)-5-hydroxy-4-(6-(4-methylpiperazin-1-yl)-2,3-dihydro-1H-pyrrolo[3,4-c]pyridine-2-carbonyl)benzonitrile]
5.00 to 6.00	COc1cccc2c1CN(C(=O)c1c(O)cc(C#N)cc1OCc1ccccc1)C2 [Example 10.11, 3-(Benzyloxy)-5-hydroxy-4-(4-methoxyisoindoline-2-carbonyl)benzonitrile]
6.00 to 7.00	O=C(c1c(O)cc(C(F)F)cc1OCc1ccccc1)N1Cc2ccc(OCCN3CCOCC3)cc2C1 [Example 4.70, (2-(Benzyloxy)-4-(difluoromethyl)-6-hydroxyphenyl) (5-(2-morpholinoethoxy)isoindolin-2-yl) methanone]
5.00 to 6.00	COc1ccc2c(c1N[C@H]1CCOC1)CN(C(=O)c1c(O)cc(C(F)F)cc1OCc1ccccc1)CC2 [Example 4.23, (S)-(2-(Benzyloxy)-4-(difluoromethyl)-6-hydroxyphenyl)(7-methoxy-8-((tetrahydrofuran-3-yl)amino)-3,4-dihydroisoquinolin-2(1H)-yl)methanone]
6.00 to 7.00	CN(C)C(=O)CNc1cccc2c1CN(C(=O)c1c(O)cc(C(F)F)cc1OCc1ccccc1)C2 [Example 4.29, 2-((2-(2-(Benzyloxy)-4-(difluoromethyl)-6-hydroxybenzoyl)isoindolin-4-yl)amino)-N, N-dimethylacetamide]
> 7.00	CN(C)CCOc1cc2c(c(N[C@H]3CCOC3)c1)CN(C(=O)c1c(O)cc(Cl)cc1OCc1ccccc1)C2 [Example 10, (S)-(2-(Benzyloxy)-4-chloro-6-hydroxyphenyl)(6-(2-(dimethylamino)ethoxy)-4-((tetrahydrofuran-3-yl)amino)isoindolin-2-yl)methanone]
> 7.00	CN(C)CCOc1cc2c(c(NC3CCCC3)c1)CN(C(=O)c1c(O)cc(C(F)F)cc1OCc1ccccc1)CC2 [Example 4.72, (2-(Benzyloxy)-4-(difluoromethyl)-6-hydroxyphenyl)(8-(cyclopentylamino)-6-(2-(dimethylamino)ethoxy)-3,4-dihydroisoquinolin-2(1H)-yl)methanone]
5.00 to 6.00	CN(C)CCOc1ccc2c(c1)CCN(C(=O)c1c(O)cc(C#N)cc1OCc1ccccc1)C2 [Example 10.29, 3-(Benzyloxy)-4-(6-(2-(dimethylamino)ethoxy)-1,2,3,4-tetrahydroisoquinoline-2-carbonyl)-5-hydroxybenzonitrile]
6.00 to 7.00	CN1CCC(Oc2ccc3c(c2)CCN(C(=O)c2c(O)cc(C(F)F)cc2OCc2ccccc2)C3)CC1 [Example 4.45, (2-(Benzyloxy)-4-(difluoromethyl)-6-hydroxyphenyl)(6-((1-methylpiperidin-4-yl)oxy)-3,4-dihydroisoquinolin-2(1H)-yl)methanone]

Reference: patent US20260217687A1 (NeoPhore Limited, priority 2023, published 2026)
